Patent EP4603105A1, “PHARMACEUTICAL COMPOSITION CONTAINING CYCLIC COMPOUND HAVING SELECTIVE KRAS INHIBITORY EFFECT AGAINST HRAS AND NRAS” (CHUGAI SEIYAKU KABUSHIKI KAISHA, priority 2022, dated 2024)
pIC50: −log10 of the molar value.

Assays:
HRAS wild-type protein = HRAS wild-type protein (Homo sapiens, UniProt P01112); test: Binding to HRAS by surface plasmon resonance (SPR), KD and KD ratio to KRAS; details: ratio of the KD value with respect to HRAS wild-type protein to the KD value with respect to KRAS
Chain of HRAS wild-type protein (P01112 whole entry): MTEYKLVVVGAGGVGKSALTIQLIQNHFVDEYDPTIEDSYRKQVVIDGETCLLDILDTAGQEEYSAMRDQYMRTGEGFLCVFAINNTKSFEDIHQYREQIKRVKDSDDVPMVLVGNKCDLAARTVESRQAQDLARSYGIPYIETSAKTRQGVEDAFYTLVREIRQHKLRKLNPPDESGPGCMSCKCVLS
How it was run: (§1)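 Measured at 30°C: SPR with GDP-loaded, E. coli-expressed biotin-Avi RAS captured (~100–300 RU), ascending 75 s compound injections, HBS pH 7.4 with GDP, MgCl2, 4% DMSO. KD from 1:1 fit.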

[1] = target: GDP-bound NRAS wild-type protein (Homo sapiens, UniProt P01111); test: Binding to NRAS by surface plasmon resonance (SPR), KD and KD ratio to KRAS; details: ratio of the KD value with respect to GDP-bound NRAS wild-type protein to the KD value with respect to KRAS
Chain of GDP-bound NRAS wild-type protein (P01111 whole entry): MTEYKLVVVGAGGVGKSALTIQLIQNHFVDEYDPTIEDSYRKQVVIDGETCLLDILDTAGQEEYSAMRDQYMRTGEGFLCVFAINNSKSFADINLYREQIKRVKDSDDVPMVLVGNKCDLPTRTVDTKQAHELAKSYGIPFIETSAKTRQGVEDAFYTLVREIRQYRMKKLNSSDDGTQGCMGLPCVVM
How it was run: as §1

[2] = test system: human lung cancer strain NCI-H441; format: cell-based
How it was run: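 Signal came from […] measured per well once the reagent was added. Beforehand, cells were cultured at 37°C and 5% carbon dioxide on a compound series serially diluted in dimethyl sulfoxide.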

| Compound | HRAS /KRAS (HRAS wild-type protein) | NRAS /KRAS [1] | pIC50 [2] |
| --- | --- | --- | --- |
| CC[C@H](C)[C@@H]1NC(=O)[C@H](CC(C)C)N(C)C(=O)C[C@@H](C(=O)N2CCCC2)N(C)C(=O)[C@H](C2CCCC2)N(C)C(=O)C2(CCCC2)NC(=O)[C@@H]2CCCN2C(=O)[C@H](CCc2cc(F)c(C(F)(F)F)c(F)c2)NC(=O)CN(C)C(=O)[C@H](Cc2ccc(C(F)(F)F)cc2)N2CCCC[C@@H](C2=O)N(C)C(=O)CN(C)C1=O [PP0571] | B (a compound having 3 or more and less than 10 is denoted as B) | B (a compound having 3 or more and less than 10 is denoted as B) | 8.27 |
| CC[C@H](C)[C@@H]1NC(=O)[C@H](CC(C)C)N(C)C(=O)C[C@@H](C(=O)N2CCCCC2)N(C)C(=O)[C@H](C2CCCC2)N(C)C(=O)C2(CCCC2)NC(=O)[C@@H]2CCCN2C(=O)[C@H](CCc2cc(F)c(C(F)(F)F)c(F)c2)NC(=O)CN(C)C(=O)[C@H](Cc2ccc(C(F)(F)F)cc2)N2CCCC[C@@H](C2=O)N(C)C(=O)CN(C)C1=O [PP0572] | B (a compound having 3 or more and less than 10 is denoted as B) | B (a compound having 3 or more and less than 10 is denoted as B) | 8.05 |
| CC[C@H](C)[C@@H]1NC(=O)[C@H](CC(C)C)N(C)C(=O)C[C@@H](C(=O)N(C)C)N(C)C(=O)[C@H](C2CCCC2)N(C)C(=O)C2(CCC2)NC(=O)[C@@H]2CCCN2C(=O)[C@H](CCc2cc(F)c(C(F)(F)F)c(F)c2)NC(=O)CN(C)C(=O)[C@H](Cc2ccc(C(F)(F)F)cc2)N2CCCC[C@@H](C2=O)N(C)C(=O)CN(C)C1=O [PP0574] | B (a compound having 3 or more and less than 10 is denoted as B) | C (A compound having a KD ratio of 0.1 or more and less than 3 is denoted as C) | 8.51 |
| CC[C@H](C)[C@@H]1NC(=O)[C@H](CC(C)C)N(C)C(=O)C[C@@H](C(=O)N2CCOCC2)N(C)C(=O)[C@H](C2CCCC2)N(C)C(=O)C2(CCC2)NC(=O)[C@@H]2CC(F)(F)CN2C(=O)[C@H](CCc2cc(F)c(C(F)(F)F)c(F)c2)NC(=O)CN(C)C(=O)[C@H](Cc2ccc(C(F)(F)F)cc2)N2CCCC[C@@H](C2=O)N(C)C(=O)CN(C)C1=O [PP0575] | B (a compound having 3 or more and less than 10 is denoted as B) | B (a compound having 3 or more and less than 10 is denoted as B) | 8.49 |
| CC[C@H](C)[C@@H]1NC(=O)[C@H](CC(C)C)N(C)C(=O)C[C@@H](C(=O)N(C)C)N(C)C(=O)[C@H](C2CCCC2)N(C)C(=O)C2(CCCC2)NC(=O)[C@@H]2CC(F)(F)CN2C(=O)[C@H](CCc2cc(F)c(C(F)(F)F)c(F)c2)NC(=O)CN(C)C(=O)[C@H](Cc2ccc(C(F)(F)F)cc2)N2CCCC[C@@H](C2=O)N(C)C(=O)CN(C)C1=O [PP0576] | B (a compound having 3 or more and less than 10 is denoted as B) | C (A compound having a KD ratio of 0.1 or more and less than 3 is denoted as C) | 8.62 |
| CC[C@H](C)[C@@H]1NC(=O)[C@H](CC(C)C)N(C)C(=O)C[C@@H](C(=O)N(C)C)N(C)C(=O)[C@H](C2CCCC2)N(C)C(=O)C2(CCC2)NC(=O)[C@@H]2CC(F)(F)CN2C(=O)[C@H](CCc2cc(F)c(C(F)(F)F)c(F)c2)NC(=O)CN(C)C(=O)[C@H](Cc2ccc(C(F)(F)F)cc2)N2CCCC[C@@H](C2=O)N(C)C(=O)CN(C)C1=O [PP0577] | C (A compound having a KD ratio of 0.1 or more and less than 3 is denoted as C) | C (A compound having a KD ratio of 0.1 or more and less than 3 is denoted as C) | 8.62 |
| CCO[C@@H]1C[C@H]2C(=O)NC3(CCC3)C(=O)N(C)[C@@H](C3CCCC3)C(=O)N(C)[C@H](C(=O)N3CCOCC3)CC(=O)N(C)[C@@H](CC(C)C)C(=O)N[C@@H]([C@@H](C)CC)C(=O)N(C)CC(=O)N(C)[C@H]3CCCCN(C3=O)[C@@H](Cc3ccc(C(F)(F)F)cc3)C(=O)N(C)CC(=O)N[C@@H](CCc3cc(F)c(C(F)(F)F)c(F)c3)C(=O)N2C1 [PP0578] | B (a compound having 3 or more and less than 10 is denoted as B) | B (a compound having 3 or more and less than 10 is denoted as B) | 8.66 |
| CCO[C@@H]1C[C@H]2C(=O)NC3(CCCC3)C(=O)N(C)[C@@H](C3CCCC3)C(=O)N(C)[C@H](C(=O)N(C)C)CC(=O)N(C)[C@@H](CC(C)C)C(=O)N[C@@H]([C@@H](C)CC)C(=O)N(C)CC(=O)N(C)[C@H]3CCCCN(C3=O)[C@@H](Cc3ccc(C(F)(F)F)cc3)C(=O)N(C)CC(=O)N[C@@H](CCc3cc(F)c(C(F)(F)F)c(F)c3)C(=O)N2C1 [PP0579] | B (a compound having 3 or more and less than 10 is denoted as B) | C (A compound having a KD ratio of 0.1 or more and less than 3 is denoted as C) | 8.62 |
| CCO[C@@H]1C[C@H]2C(=O)NC3(CCC3)C(=O)N(C)[C@@H](C3CCCC3)C(=O)N(C)[C@H](C(=O)N(C)C)CC(=O)N(C)[C@@H](CC(C)C)C(=O)N[C@@H]([C@@H](C)CC)C(=O)N(C)CC(=O)N(C)[C@H]3CCCCN(C3=O)[C@@H](Cc3ccc(C(F)(F)F)cc3)C(=O)N(C)CC(=O)N[C@@H](CCc3cc(F)c(C(F)(F)F)c(F)c3)C(=O)N2C1 [PP0580] | C (A compound having a KD ratio of 0.1 or more and less than 3 is denoted as C) | C (A compound having a KD ratio of 0.1 or more and less than 3 is denoted as C) | 8.74 |
| CC[C@H](C)[C@@H]1NC(=O)[C@H](C)N(C)C(=O)C[C@@H](C(=O)N(C)C)N(C)C(=O)[C@H](C2CCCC2)N(C)C(=O)C2(CCC2)NC(=O)[C@@H]2CCCN2C(=O)[C@H](CCc2cc(F)c(C(F)(F)F)c(F)c2)NC(=O)CN(C)C(=O)[C@H](Cc2ccc(C(F)(F)F)cc2)N2CCCC[C@@H](C2=O)N(C)C(=O)CN(C)C1=O [PP0581] | B (a compound having 3 or more and less than 10 is denoted as B) | C (A compound having a KD ratio of 0.1 or more and less than 3 is denoted as C) | 8.10 |
| CC[C@H](C)[C@@H]1NC(=O)[C@H](C)N(C)C(=O)C[C@@H](C(=O)N2CCOCC2)N(C)C(=O)[C@H](C2CCCC2)N(C)C(=O)C2(CCC2)NC(=O)[C@@H]2CC(F)(F)CN2C(=O)[C@H](CCc2cc(F)c(C(F)(F)F)c(F)c2)NC(=O)CN(C)C(=O)[C@H](Cc2ccc(C(F)(F)F)cc2)N2CCCC[C@@H](C2=O)N(C)C(=O)CN(C)C1=O [PP0582] | B (a compound having 3 or more and less than 10 is denoted as B) | C (A compound having a KD ratio of 0.1 or more and less than 3 is denoted as C) | 8.02 |
| CC[C@H](C)[C@@H]1NC(=O)[C@H](C)N(C)C(=O)C[C@@H](C(=O)N(C)C)N(C)C(=O)[C@H](C2CCCC2)N(C)C(=O)C2(CCCC2)NC(=O)[C@@H]2CC(F)(F)CN2C(=O)[C@H](CCc2cc(F)c(C(F)(F)F)c(F)c2)NC(=O)CN(C)C(=O)[C@H](Cc2ccc(C(F)(F)F)cc2)N2CCCC[C@@H](C2=O)N(C)C(=O)CN(C)C1=O [PP0583] | C (A compound having a KD ratio of 0.1 or more and less than 3 is denoted as C) | C (A compound having a KD ratio of 0.1 or more and less than 3 is denoted as C) | 7.99 |
| CC[C@H](C)[C@@H]1NC(=O)[C@H](C)N(C)C(=O)C[C@@H](C(=O)N(C)C)N(C)C(=O)[C@H](C2CCCC2)N(C)C(=O)C2(CCC2)NC(=O)[C@@H]2CC(F)(F)CN2C(=O)[C@H](CCc2cc(F)c(C(F)(F)F)c(F)c2)NC(=O)CN(C)C(=O)[C@H](Cc2ccc(C(F)(F)F)cc2)N2CCCC[C@@H](C2=O)N(C)C(=O)CN(C)C1=O [PP0584] | C (A compound having a KD ratio of 0.1 or more and less than 3 is denoted as C) | C (A compound having a KD ratio of 0.1 or more and less than 3 is denoted as C) | 8.15 |
| CCO[C@@H]1C[C@H]2C(=O)NC3(CCC3)C(=O)N(C)[C@@H](C3CCCC3)C(=O)N(C)[C@H](C(=O)N3CCOCC3)CC(=O)N(C)[C@@H](C)C(=O)N[C@@H]([C@@H](C)CC)C(=O)N(C)CC(=O)N(C)[C@H]3CCCCN(C3=O)[C@@H](Cc3ccc(C(F)(F)F)cc3)C(=O)N(C)CC(=O)N[C@@H](CCc3cc(F)c(C(F)(F)F)c(F)c3)C(=O)N2C1 [PP0585] | B (a compound having 3 or more and less than 10 is denoted as B) | B (a compound having 3 or more and less than 10 is denoted as B) | 8.21 |
| CCO[C@@H]1C[C@H]2C(=O)NC3(CCCC3)C(=O)N(C)[C@@H](C3CCCC3)C(=O)N(C)[C@H](C(=O)N(C)C)CC(=O)N(C)[C@@H](C)C(=O)N[C@@H]([C@@H](C)CC)C(=O)N(C)CC(=O)N(C)[C@H]3CCCCN(C3=O)[C@@H](Cc3ccc(C(F)(F)F)cc3)C(=O)N(C)CC(=O)N[C@@H](CCc3cc(F)c(C(F)(F)F)c(F)c3)C(=O)N2C1 [PP0586] | B (a compound having 3 or more and less than 10 is denoted as B) | C (A compound having a KD ratio of 0.1 or more and less than 3 is denoted as C) | 8.28 |
